IC50 data for 20 molecules are collected here from patent publication US9771352B2, “Hydroxyalkyl-substituted phenyltriazole derivatives and uses thereof” (BAYER PHARMA AKTIENGESELLSCHAFT, priority 2014, dated 2017).

Structures are written as SMILES.

The target of one test is T1, human V1a receptor (Homo sapiens, UniProt P37288).
T1 construct: expressed in transfected cells; host or cells: CHO K1 (ATCC), also stably transfected with modified aequorin
Nature of the test: Cellular in vitro assay for determining vasopressin receptor activity, V1a receptor cell line (photoprotein luminescence). The format is cell-based. Particulars: CHO cell line transfected with human V1a receptor; [Arg8]-vasopressin at EC50; compounds of the invention (Table 1A); read-out: IC50 hV1a. How it is done:
(§1) The identification of agonists and antagonists of the V1a and V2 vasopressin receptors from humans, rats and dogs as well as the quantification of the activity of the compounds of the invention is carried out using recombinant cell lines. These cell lines originally derive from a hamster's ovary epithelial cell (Chinese Hamster Ovary, CHO K1, ATCC: American Type Culture Collection, Manassas, Va. 20108, USA). The test cell lines constitutively express the human, rat or dog V1a or V2 receptors. In case of the […] V1a receptors, cells are also stably transfected with a modified form of the calcium-sensitive photoproteins aequorin (human and rat V1a) or obelin (dog V1a), which, after reconstitution with the cofactor coelenterazine, emit light when there are increases in free calcium concentrations [Rizzuto R, Simpson A W, Brini M, Pozzan T, Nature 358, 325-327 (1992); Illarionov B A, Bondar V S, Illarionova V A, Vysotski E S, Gene 153 (2), 273-274 (1995)]. The resulting vasopressin receptor cells react to stimulation of the recombinantly expressed V1a receptors by intracellular release of calcium ions, which can be quantified by the resulting photoprotein luminescence. The Gs-coupled V2 receptors are stably transfected into cell lines expressing the gene for firefly luciferase under control of a CRE-responsible promoter. Activation of V2 receptors induces the activation of the CRE-responsive promoter via cAMP increase, thereby inducing the expression of firefly luciferase. The light emitted by photoproteins of V1a cell lines as well as the light emitted by firefly luciferase of V2 cell lines corresponds to the activation or inhibition of the respective vasopressin receptor. The bioluminescence of the cell lines is detected using a suitable luminometer [Milligan G, Marshall F, Rees S, Trends in Pharmacological Sciences 17, 235-237 (1996)].
On the day before the assay, the cells are plated out in culture medium (DMEM/F12, 2% FCS, 2 mM glutamine, 10 mM HEPES, 5 μg/ml coelenterazine) in 384-well microtiter plates and kept in a cell incubator (96% humidity, 5% v/v CO2, 37° C.). On the day of the assay, test compounds in various concentrations are placed for 10 minutes in the wells of the microtiter plate before the agonist [Arg^8]-vasopressin at EC50 concentration is added. The resulting light signal is measured immediately in the luminometer.
(§2) Table 1A below lists individual IC50 values for the compounds of the invention (including diastereomeric mixtures as well as separated, enantiopure diastereomers) that were obtained from cell lines transfected with the human V1a or V2 receptor: […]

In the next test the target is T2, human V2 receptor (Homo sapiens, UniProt P30518).
T2 construct: expressed in transfected cells; host or cells: CHO K1 (ATCC) expressing firefly luciferase under a CRE-responsive promoter
T2 sequence (P30518 whole entry): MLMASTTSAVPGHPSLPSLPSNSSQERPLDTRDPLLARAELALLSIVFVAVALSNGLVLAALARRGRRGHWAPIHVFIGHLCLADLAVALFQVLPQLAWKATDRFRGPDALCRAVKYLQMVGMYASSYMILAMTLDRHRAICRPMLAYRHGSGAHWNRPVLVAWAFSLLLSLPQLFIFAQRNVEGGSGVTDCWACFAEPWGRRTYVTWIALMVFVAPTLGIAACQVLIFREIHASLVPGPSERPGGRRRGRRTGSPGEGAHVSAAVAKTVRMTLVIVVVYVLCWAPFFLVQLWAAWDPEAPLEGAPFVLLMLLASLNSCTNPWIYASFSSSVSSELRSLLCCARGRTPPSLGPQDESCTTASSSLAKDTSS
Kind of test: Cellular in vitro assay for determining vasopressin receptor activity, V2 receptor cell line (CRE-luciferase). The format is cell-based. The settings on record: CHO cell line transfected with human V2 receptor; [Arg8]-vasopressin at EC50; compounds of the invention (Table 1A); read-out: IC50 hV2. How it is done: as §1
On the day before the assay, the cells are plated out in culture medium (DMEM/F12, 2% FCS, 2 mM glutamine, 10 mM HEPES) in 384-well microtiter plates and kept in a cell incubator (96% humidity, 5% v/v CO2, 37° C.). […] Upon addition of the cell lysis reagent Triton and the substrate luciferin, luminescence of firefly luciferase is measured in a luminometer.
as §2

T1 sequence (P37288 whole entry): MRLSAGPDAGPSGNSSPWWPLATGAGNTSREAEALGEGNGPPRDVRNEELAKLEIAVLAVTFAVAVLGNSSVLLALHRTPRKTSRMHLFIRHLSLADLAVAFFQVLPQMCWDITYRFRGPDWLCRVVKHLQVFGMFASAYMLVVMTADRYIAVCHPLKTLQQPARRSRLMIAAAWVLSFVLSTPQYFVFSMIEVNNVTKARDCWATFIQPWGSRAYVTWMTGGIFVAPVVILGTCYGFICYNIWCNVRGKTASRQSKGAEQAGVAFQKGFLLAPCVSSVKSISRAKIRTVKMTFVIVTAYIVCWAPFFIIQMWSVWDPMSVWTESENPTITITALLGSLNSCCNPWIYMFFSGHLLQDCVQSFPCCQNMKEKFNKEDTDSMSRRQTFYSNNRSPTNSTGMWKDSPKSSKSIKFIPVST

Turning to `COc1ccccc1-n1nc(Cn2nc(-c3ccc(Cl)cc3)n(C[C@H](O)C(F)(F)F)c2=O)nc1C(C)O` (single isomer, unassigned) [Example 12], the values for the 50% inhibitory concentration (IC50) at human V1a receptor and at human V2 receptor were 1.3 nM and 1.1 nM, respectively.

Consider `COc1ccccc1-n1nc(Cn2nc(-c3ccc(Cl)cc3)n(C[C@H](O)C(F)(F)F)c2=O)nc1C(C)O` (mixture of isomers) [Example 10, 5-(4-Chlorophenyl)-2-({5-[(1RS)-1-hydroxyethyl]-1-(2-methoxyphenyl)-1H-1,2,4-triazol-3-yl}-methyl)-4-[(2S)-3,3,3-trifluoro-2-hydroxypropyl]-2,4-dihydro-3H-1,2,4-triazol-3-one], for which the IC50 at human V1a receptor and on human V2 receptor was 1.4 nM in each case.

For `CC(O)c1nc(Cn2nc(-c3ccc(Cl)cc3)n(C[C@H](O)C(F)(F)F)c2=O)nn1-c1ccc(F)cc1Cl` (single isomer, unassigned) [Example 36], the IC50 on human V1a receptor came out at 0.8 nM; at human V2 receptor it was 2.8 nM.

For the molecule `CC(O)c1nc(Cn2nc(-c3ccc(Cl)cc3)n(C[C@H](O)C(F)(F)F)c2=O)nn1-c1cc(Cl)cc(Cl)c1` (mixture of isomers) [Example 46, 5-(4-Chlorophenyl)-2-({1-(3,5-dichlorophenyl)-5-[(1RS)-1-hydroxyethyl]-1H-1,2,4-triazol-3-yl}-methyl)-4-[(2S)-3,3,3-trifluoro-2-hydroxypropyl]-2,4-dihydro-3H-1,2,4-triazol-3-one], the half-maximal inhibitory concentration (IC50) on human V1a receptor was 6.3 nM; on human V2 receptor, 2.1 nM.

As for `CC(O)c1nc(Cn2nc(-c3ccc(Cl)cc3)n(C[C@H](O)C(F)(F)F)c2=O)nn1-c1ccccc1` (mixture of isomers) [Example 16, 5-(4-Chlorophenyl)-2-({5-[(1RS)-1-hydroxyethyl]-1-phenyl-1H-1,2,4-triazol-3-yl}methyl)-4-[(2S)-3,3,3-trifluoro-2-hydroxypropyl]-2,4-dihydro-3H-1,2,4-triazol-3-one], the values for the IC50 on human V1a receptor and at human V2 receptor were 3.1 nM and 6 nM, respectively.

On to `C[C@@H](O)c1nc(Cn2nc(-c3ccc(Cl)cc3)n(C[C@H](O)C(F)(F)F)c2=O)nn1-c1cccc(Cl)c1` [Example 80, 5-(4-Chlorophenyl)-2-({1-(3-chlorophenyl)-5-[(1R)-1-hydroxyethyl]-1H-1,2,4-triazol-3-yl}-methyl)-4-[(2S)-3,3,3-trifluoro-2-hydroxypropyl]-2,4-dihydro-3H-1,2,4-triazol-3-one], for which the IC50 at human V1a receptor came to 46.3 nM; on human V2 receptor, 5.1 nM.

Turning to `CC(O)c1nc(Cn2nc(-c3ccc(Cl)cc3)n(C[C@H](O)C(F)(F)F)c2=O)nn1-c1cc(F)cc(F)c1` (mixture of isomers) [Example 25, 5-(4-Chlorophenyl)-2-({1-(3,5-difluorophenyl)-5-[(1RS)-1-hydroxyethyl]-1H-1,2,4-triazol-3-yl}-methyl)-4-[(2S)-3,3,3-trifluoro-2-hydroxypropyl]-2,4-dihydro-3H-1,2,4-triazol-3-one], the values for the IC50 on human V1a receptor and on human V2 receptor were 7.2 nM and 3.6 nM, respectively.

In the case of `CC(O)c1nc(Cn2nc(-c3ccc(Cl)cc3)n(C[C@H](O)C(F)(F)F)c2=O)nn1-c1ccc(F)c(Cl)c1` (mixture of isomers) [Example 43, 2-({1-(3-Chloro-4-fluorophenyl)-5-[(1RS)-1-hydroxyethyl]-1H-1,2,4-triazol-3-yl}methyl)-5-(4-chlorophenyl)-4-[(2S)-3,3,3-trifluoro-2-hydroxypropyl]-2,4-dihydro-3H-1,2,4-triazol-3-one], the IC50 on human V1a receptor was 6.2 nM; on human V2 receptor, 1.2 nM.

`CC(O)c1nc(Cn2nc(-c3ccc(Cl)cc3)n(C[C@H](O)C(F)(F)F)c2=O)nn1-c1cccc(OC(F)F)c1` (single isomer, unassigned) [Example 56]: the IC50 was found to be 2.4 nM on human V1a receptor and 1.4 nM at human V2 receptor.

In the case of `CC(O)c1nc(Cn2nc(-c3ccc(Cl)cc3)n(C[C@H](O)C(F)(F)F)c2=O)nn1-c1cc(F)cc(F)c1` (single isomer, unassigned) [Example 26], the IC50 on human V1a receptor came to 3.1 nM; on human V2 receptor, 3 nM.

As for `CC(O)c1nc(Cn2nc(-c3ccc(Cl)cc3)n(C[C@H](O)C(F)(F)F)c2=O)nn1-c1cccc(OC(F)F)c1` (mixture of isomers) [Example 55, 5-(4-Chlorophenyl)-2-({1-[3-(difluoromethoxy)phenyl]-5-[(1RS)-1-hydroxyethyl]-1H-1,2,4-triazol-3-yl}methyl)-4-[(2S)-3,3,3-trifluoro-2-hydroxypropyl]-2,4-dihydro-3H-1,2,4-triazol-3-one], the figures for the IC50 on human V1a receptor and at human V2 receptor were 14.8 nM and 4.2 nM, respectively.

As to `CCc1ccccc1-n1nc(Cn2nc(-c3ccc(Cl)cc3)n(C[C@H](O)C(F)(F)F)c2=O)nc1C(C)O` (mixture of isomers) [Example 31, 5-(4-Chlorophenyl)-2-({1-(2-ethylphenyl)-5-[(1RS)-1-hydroxyethyl]-1H-1,2,4-triazol-3-yl}-methyl)-4-[(2S)-3,3,3-trifluoro-2-hydroxypropyl]-2,4-dihydro-3H-1,2,4-triazol-3-one], the IC50 was 1.6 nM at human V1a receptor and 0.9 nM on human V2 receptor.

Take `Cc1ccccc1-n1nc(Cn2nc(-c3ccc(Cl)cc3)n(C[C@H](O)C(F)(F)F)c2=O)nc1C(C)O` (single isomer, unassigned) [Example 71]: the IC50 on human V1a receptor came to 0.6 nM; at human V2 receptor, 2.1 nM.

For `CC(O)c1nc(Cn2nc(-c3ccc(Cl)cc3)n(C[C@H](O)C(F)(F)F)c2=O)nn1-c1ccc(F)c(Cl)c1` (single isomer, unassigned) [Example 44], the half-maximal inhibitory concentration (IC50) worked out at 6.1 nM at human V1a receptor and 1.2 nM at human V2 receptor.

On to `Cc1cccc(-n2nc(Cn3nc(-c4ccc(Cl)cc4)n(C[C@H](O)C(F)(F)F)c3=O)nc2C(C)O)c1` (single isomer, unassigned) [Example 30], for which the half-maximal inhibitory concentration (IC50) worked out at 71.6 nM at human V1a receptor and 0.4 nM on human V2 receptor.

Consider `CC(O)c1nc(Cn2nc(-c3ccc(Cl)cc3)n(C[C@H](O)C(F)(F)F)c2=O)nn1-c1cccc(F)c1` (mixture of isomers) [Example 75, 5-(4-Chlorophenyl)-2-({1-(3-fluorophenyl)-5-[(1RS)-1-hydroxyethyl]-1H-1,2,4-triazol-3-yl}-methyl)-4-[(2S)-3,3,3-trifluoro-2-hydroxypropyl]-2,4-dihydro-3H-1,2,4-triazol-3-one], for which the concentration for half-maximal inhibition (IC50) at human V1a receptor came out at 2.9 nM; at human V2 receptor, 6.6 nM.

With `CC(O)c1nc(Cn2nc(-c3ccc(Cl)cc3)n(C[C@H](O)C(F)(F)F)c2=O)nn1-c1ccc(F)cc1Cl` (mixture of isomers) [Example 34, 2-({1-(2-Chloro-4-fluorophenyl)-5-[(1RS)-1-hydroxyethyl]-1H-1,2,4-triazol-3-yl}methyl)-5-(4-chlorophenyl)-4-[(2S)-3,3,3-trifluoro-2-hydroxypropyl]-2,4-dihydro-3H-1,2,4-triazol-3-one], the values for the half-inhibitory concentration (IC50) at human V1a receptor and on human V2 receptor were 0.4 nM and 1.2 nM, respectively.

For `C[C@@H](O)c1nc(Cn2nc(-c3ccc(Cl)cc3)n(C[C@H](O)C(F)(F)F)c2=O)nn1-c1cccc(F)c1` [Example 77, 5-(4-Chlorophenyl)-2-({1-(3-fluorophenyl)-5-[(1R)-1-hydroxyethyl]-1H-1,2,4-triazol-3-yl}-methyl)-4-[(2S)-3,3,3-trifluoro-2-hydroxypropyl]-2,4-dihydro-3H-1,2,4-triazol-3-one], the values for the IC50 on human V1a receptor and on human V2 receptor were 12.5 nM and 13.5 nM, respectively.

On to `CC(O)c1nc(Cn2nc(-c3ccc(Cl)cc3)n(C[C@H](O)C(F)(F)F)c2=O)nn1-c1cccc(F)c1F` (single isomer, unassigned) [Example 65], for which the concentration for half-maximal inhibition (IC50) on human V1a receptor was found to be 2.5 nM; at human V2 receptor, 3.3 nM.

As to `CC(O)c1nc(Cn2nc(-c3ccc(Cl)cc3)n(C[C@H](O)C(F)(F)F)c2=O)nn1-c1cccc(C(F)(F)F)c1` (single isomer, unassigned) [Example 23], the IC50 was 12.2 nM on human V1a receptor and 0.9 nM on human V2 receptor.

A word on the IC50: it is the point on the concentration scale where inhibition reaches its midpoint.
